Results reported in article PMC5218480 (PLoS ONE, 2017).

Tested on: MV-4-11 cells
Test: Gene expression microarray analysis (Affymetrix PrimeView) and GSEA
Assay type: cell-based, human
Design: RFU PODN (11730768_x_at) / Fold change /veh PODN (11730768_x_at) / RFU LINC00158 (11744669_a_at) / Fold change /veh LINC00158 (11744669_a_at) / RFU DUSP10 (11751237_a_at) / Fold change /veh DUSP10 (11751237_a_at) / RFU ID3 (11757404_x_at) / Fold change /veh ID3 (11757404_x_at) / RFU PLEKHG5 (11737974_s_at) / Fold change /veh PLEKHG5 (11737974_s_at) / RFU LRRC4B (11730491_at) / Fold change /veh LRRC4B (11730491_at) / RFU GIMAP4 (11747438_a_at) / Fold change /veh GIMAP4 (11747438_a_at) / RFU KRT8 (11758183_x_at) / Fold change /veh KRT8 (11758183_x_at) / RFU CNN1 (11734310_a_at) / Fold change /veh CNN1 (11734310_a_at) / RFU VPS37D (11726825_at) / Fold change /veh VPS37D (11726825_at) / RFU C10orf10 (11716522_x_at) / Fold change /veh C10orf10 (11716522_x_at) / RFU KIR2DL2 /// KIR2DL4 /// KIR2DL5A /// KIR2DL5B /// KIR2DS1 /// KIR2DS2 /// KIR2DS3 /// KIR2DS4 /// KIR3DL3 /// KIR3DL3 /// KIR3DS1 (11738374_at) / Fold change /veh KIR2DL2 /// KIR2DL4 /// KIR2DL5A /// KIR2DL5B /// KIR2DS1 /// KIR2DS2 /// KIR2DS3 /// KIR2DS4 /// KIR3DL3 /// KIR3DL3 /// KIR3DS1 (11738374_at) / RFU C1QL1 (11718748_at) / Fold change /veh C1QL1 (11718748_at) / RFU TMPRSS4 (11747572_a_at) / Fold change /veh TMPRSS4 (11747572_a_at) / RFU HAMP (11756126_x_at) / Fold change /veh HAMP (11756126_x_at) / RFU RNFT2 (11725882_a_at) / Fold change /veh RNFT2 (11725882_a_at) / RFU NR4A2 (11747474_a_at) / Fold change /veh NR4A2 (11747474_a_at) / RFU ABCC12 (11746883_a_at) / Fold change /veh ABCC12 (11746883_a_at) / RFU TMEM136 (11760407_x_at) / Fold change /veh TMEM136 (11760407_x_at) / RFU CLDN22 /// WWC2 (11732394_at) / Fold change /veh CLDN22 /// WWC2 (11732394_at) / RFU HLA-DPB1 (11760878_x_at) / Fold change /veh HLA-DPB1 (11760878_x_at) / RFU SPINT1 (11716480_a_at) / Fold change /veh SPINT1 (11716480_a_at) / RFU GAP43 (11754022_s_at) / Fold change /veh GAP43 (11754022_s_at) / RFU A4GNT (11735810_at) / Fold change /veh A4GNT (11735810_at) / RFU PRB3 (11715151_x_at) / Fold change /veh PRB3 (11715151_x_at) / RFU TUBB4B (11761932_at) / Fold change /veh TUBB4B (11761932_at) / RFU CAPN14 (11732068_a_at) / Fold change /veh CAPN14 (11732068_a_at) / RFU TMCC2 (11721928_a_at) / Fold change /veh TMCC2 (11721928_a_at) / RFU IRGQ (11745062_a_at) / Fold change /veh IRGQ (11745062_a_at) / RFU FAM174B (11720279_a_at) / Fold change /veh FAM174B (11720279_a_at) / RFU TMPRSS4 (11748680_a_at) / Fold change /veh TMPRSS4 (11748680_a_at) / RFU FAM212B (11763350_a_at) / Fold change /veh FAM212B (11763350_a_at) / RFU PLEKHG5 (11743358_a_at) / Fold change /veh PLEKHG5 (11743358_a_at) / RFU ZSCAN30 (11745921_a_at) / Fold change /veh ZSCAN30 (11745921_a_at) / RFU CMKLR1 (11741424_a_at) / Fold change /veh CMKLR1 (11741424_a_at) / RFU LOC101060620 /// MAPK8IP1 (11723275_at) / Fold change /veh LOC101060620 /// MAPK8IP1 (11723275_at) / RFU SPTSSB (11747773_x_at) / Fold change /veh SPTSSB (11747773_x_at) / RFU PRSS12 (11739890_at) / Fold change /veh PRSS12 (11739890_at) / RFU BIN1 (11741810_x_at) / Fold change /veh BIN1 (11741810_x_at) / RFU WNT11 (11732464_a_at) / Fold change /veh WNT11 (11732464_a_at) / RFU C10orf10 (11716521_a_at) / Fold change /veh C10orf10 (11716521_a_at) / RFU C5orf56 (11738089_at) / Fold change /veh C5orf56 (11738089_at) / RFU CYB561 (11721691_x_at) / Fold change /veh CYB561 (11721691_x_at) / RFU ANKRD19P (11752326_a_at) / Fold change /veh ANKRD19P (11752326_a_at) / RFU OR2T12 /// OR2T33 /// OR2T8 (11738714_s_at) / Fold change /veh OR2T12 /// OR2T33 /// OR2T8 (11738714_s_at) / RFU VCAN (11748164_a_at) / Fold change /veh VCAN (11748164_a_at) / RFU JSRP1 (11732532_at) / Fold change /veh JSRP1 (11732532_at) / RFU KRTAP10-11 (11738290_x_at) / Fold change /veh KRTAP10-11 (11738290_x_at) / RFU MYO3A (11730013_a_at) / Fold change /veh MYO3A (11730013_a_at) / RFU EBF3 (11725865_a_at) / Fold change /veh EBF3 (11725865_a_at) / RFU CAMK2N1 (11719241_x_at) / Fold change /veh CAMK2N1 (11719241_x_at) / RFU C5orf56 (11738088_a_at) / Fold change /veh C5orf56 (11738088_a_at) / RFU OLFML3 (11715873_a_at) / Fold change /veh OLFML3 (11715873_a_at) / RFU LOC100653217 /// NTM (11731650_a_at) / Fold change /veh LOC100653217 /// NTM (11731650_a_at) / RFU MAPK11 (11762145_a_at) / Fold change /veh MAPK11 (11762145_a_at) / RFU FIZ1 (11724087_x_at) / Fold change /veh FIZ1 (11724087_x_at) / RFU OASL (11726364_x_at) / Fold change /veh OASL (11726364_x_at) / RFU SOX15 (11748057_x_at) / Fold change /veh SOX15 (11748057_x_at) / RFU CD79A (11719716_a_at) / Fold change /veh CD79A (11719716_a_at) / RFU HIST1H1D (11736915_at) / Fold change /veh HIST1H1D (11736915_at) / RFU CASKIN2 (11723855_a_at) / Fold change /veh CASKIN2 (11723855_a_at) / RFU LOC730098 (11760151_x_at) / Fold change /veh LOC730098 (11760151_x_at) / RFU OR4N2 (11742367_at) / Fold change /veh OR4N2 (11742367_at) / RFU PRRT2 (11749266_a_at) / Fold change /veh PRRT2 (11749266_a_at) / RFU SNX32 (11753110_a_at) / Fold change /veh SNX32 (11753110_a_at) / RFU CDHR5 (11726645_a_at) / Fold change /veh CDHR5 (11726645_a_at) / RFU RCAN1 (11760418_a_at) / Fold change /veh RCAN1 (11760418_a_at) / RFU FAM167A (11723789_a_at) / Fold change /veh FAM167A (11723789_a_at) / RFU FAM26E (11764081_at) / Fold change /veh FAM26E (11764081_at) / RFU ISYNA1 (11749810_s_at) / Fold change /veh ISYNA1 (11749810_s_at) / RFU ACY1 (11761880_at) / Fold change /veh ACY1 (11761880_at) / RFU 11764098_at / Fold change /veh 11764098_at / RFU SAMD14 (11745864_x_at) / Fold change /veh SAMD14 (11745864_x_at) / RFU NPB (11741838_a_at) / Fold change /veh NPB (11741838_a_at) / RFU TMPRSS6 (11731388_a_at) / Fold change /veh TMPRSS6 (11731388_a_at) / RFU KRTAP10-2 (11738614_at) / Fold change /veh KRTAP10-2 (11738614_at) / RFU ARHGAP8 /// PRR5-ARHGAP8 (11727945_x_at) / Fold change /veh ARHGAP8 /// PRR5-ARHGAP8 (11727945_x_at) / RFU KRTAP5-7 /// NADSYN1 (11734609_at) / Fold change /veh KRTAP5-7 /// NADSYN1 (11734609_at) / RFU RASL12 (11751679_a_at) / Fold change /veh RASL12 (11751679_a_at) / RFU CDKN2B (11736163_a_at) / Fold change /veh CDKN2B (11736163_a_at) / RFU PRF1 (11729649_at) / Fold change /veh PRF1 (11729649_at) / RFU, ZNF638 /// ZNF638-IT1 / Fold change vs veh, ZNF638 /// ZNF638-IT1 / RFU, PANK3 / Fold change vs veh, PANK3 / RFU, SH3YL1 / Fold change vs veh, SH3YL1 / RFU, ZEB2 / Fold change vs veh, ZEB2 / RFU, NRIP1 / Fold change vs veh, NRIP1 / RFU, PTTG1IP / Fold change vs veh, PTTG1IP / RFU, CAPN2 / Fold change vs veh, CAPN2 / RFU, MED14 / Fold change vs veh, MED14 / RFU, SNORA58 / Fold change vs veh, SNORA58 / RFU, C1orf63 / Fold change vs veh, C1orf63 / RFU, LRRFIP1 / Fold change vs veh, LRRFIP1 / RFU, NDUFAF7 / Fold change vs veh, NDUFAF7 / RFU, SLC12A2 / Fold change vs veh, SLC12A2 / RFU, IBTK / Fold change vs veh, IBTK / RFU, ESF1 / Fold change vs veh, ESF1 / Fold change vs veh, TMEM50B / RFU, TAOK1 / Fold change vs veh, TAOK1 / RFU, ACBD3 / Fold change vs veh, ACBD3 / RFU, TMA16 / Fold change vs veh, TMA16 / RFU, RWDD3 / Fold change vs veh, RWDD3 / RFU, BCAT1 / Fold change vs veh, BCAT1 / RFU, EDEM3 / Fold change vs veh, EDEM3 / RFU, TMEM33 / Fold change vs veh, TMEM33 / RFU, WDR75 / Fold change vs veh, WDR75 / RFU, AHCTF1 / Fold change vs veh, AHCTF1 / RFU, TFRC / Fold change vs veh, TFRC / RFU, ZDHHC17 / Fold change vs veh, ZDHHC17 / RFU, NOM1 / Fold change vs veh, NOM1 / RFU, ARL8B / Fold change vs veh, ARL8B / RFU, ZBTB11 / Fold change vs veh, ZBTB11 / RFU, TAMM41 / Fold change vs veh, TAMM41 / RFU, KIAA1704 /// LOC100996395 / Fold change vs veh, KIAA1704 /// LOC100996395 / RFU, ING1 / Fold change vs veh, ING1 / RFU, TRMT61B / Fold change vs veh, TRMT61B / RFU, FUBP3 / Fold change vs veh, FUBP3 / RFU, TP53 / Fold change vs veh, TP53 / RFU, TNKS2 / Fold change vs veh, TNKS2 / RFU, ZFP14 / Fold change vs veh, ZFP14 / RFU, ACTR2 / Fold change vs veh, ACTR2 / RFU, PPP3R1 / Fold change vs veh, PPP3R1 / RFU, PIK3R1 / Fold change vs veh, PIK3R1 / RFU, HNRNPA1 / Fold change vs veh, HNRNPA1 / RFU, RNF170 / Fold change vs veh, RNF170 / RFU, ZNF28 / Fold change vs veh, ZNF28 / RFU, RNGTT / Fold change vs veh, RNGTT / RFU, OGT / Fold change vs veh, OGT / RFU, BRD1 / Fold change vs veh, BRD1 / RFU, MARS / Fold change vs veh, MARS / RFU, ZNF655 / Fold change vs veh, ZNF655 / RFU, FAHD1 / Fold change vs veh, FAHD1 / RFU, BDP1 / Fold change vs veh, BDP1 / RFU, LRRCC1 / Fold change vs veh, LRRCC1 / RFU, ARID1A / Fold change vs veh, ARID1A / RFU, ZNF146 / Fold change vs veh, ZNF146 / RFU, ZNF330 / Fold change vs veh, ZNF330 / RFU, GPN3 / Fold change vs veh, GPN3 / RFU, C9orf123 / Fold change vs veh, C9orf123 / RFU, N4BP2L2 / Fold change vs veh, N4BP2L2 / RFU, ARFIP1 / Fold change vs veh, ARFIP1 / RFU, FAM179B / Fold change vs veh, FAM179B / RFU, BCL10 / Fold change vs veh, BCL10 / RFU, UHRF1BP1L / Fold change vs veh, UHRF1BP1L / RFU, BET1 / Fold change vs veh, BET1 / RFU, CNOT2 / Fold change vs veh, CNOT2 / RFU, ZNF268 / Fold change vs veh, ZNF268 / Fold change vs veh, ZNF507 / RFU, DGCR2 / Fold change vs veh, DGCR2 / RFU, WDSUB1 / Fold change vs veh, WDSUB1 / Fold change vs veh, HSP90B1 /// MIR3652 / RFU, ADSS / Fold change vs veh, ADSS / RFU, GK / Fold change vs veh, GK / RFU, ZNF148 / Fold change vs veh, ZNF148 / RFU, TAF9 / Fold change vs veh, TAF9 / RFU, SLC1A5 / Fold change vs veh, SLC1A5 / RFU, SLMO2 / Fold change vs veh, SLMO2 / RFU, ABCC4 / Fold change vs veh, ABCC4 / RFU, LOC101060439 /// RAP1B / Fold change vs veh, LOC101060439 /// RAP1B / RFU, RFX7 / Fold change vs veh, RFX7 / RFU, GTPBP10 / Fold change vs veh, GTPBP10 / RFU, CNEP1R1 / Fold change vs veh, CNEP1R1 / RFU, BIVM-ERCC5 /// ERCC5 / Fold change vs veh, BIVM-ERCC5 /// ERCC5 / RFU, ILF3 / Fold change vs veh, ILF3 / RFU 11762660_at / Fold change /veh 11762660_at / RFU VCAN (11757783_s_at) / Fold change /veh VCAN (11757783_s_at) / RFU DDX43 (11728927_at) / Fold change /veh DDX43 (11728927_at) / RFU KRT8 (11758188_x_at) / Fold change /veh KRT8 (11758188_x_at) / RFU NKD1 (11759106_at) / Fold change /veh NKD1 (11759106_at) / RFU SRD5A1 (11742802_a_at) / Fold change /veh SRD5A1 (11742802_a_at) / RFU TPSAB1 /// TPSB2 (11721975_s_at) / Fold change /veh TPSAB1 /// TPSB2 (11721975_s_at) / RFU GSTM3 (11746129_a_at) / Fold change /veh GSTM3 (11746129_a_at) / RFU IL23R (11737362_x_at) / Fold change /veh IL23R (11737362_x_at) / RFU TMEM51 (11727254_a_at) / Fold change /veh TMEM51 (11727254_a_at) / RFU PIWIL2 (11732686_x_at) / Fold change /veh PIWIL2 (11732686_x_at) / RFU ORM1 (11744905_x_at) / Fold change /veh ORM1 (11744905_x_at) / RFU CCDC152 (11743942_at) / Fold change /veh CCDC152 (11743942_at) / RFU ECM1 (11717891_a_at) / Fold change /veh ECM1 (11717891_a_at) / RFU IL23R (11748794_a_at) / Fold change /veh IL23R (11748794_a_at) / RFU TNFAIP8L3 (11732012_x_at) / Fold change /veh TNFAIP8L3 (11732012_x_at) / RFU MBOAT4 (11741988_at) / Fold change /veh MBOAT4 (11741988_at) / RFU 11764193_at / Fold change /veh 11764193_at / RFU TMEM53 (11763286_at) / Fold change /veh TMEM53 (11763286_at) / RFU MAGEB2 (11727129_at) / Fold change /veh MAGEB2 (11727129_at) / RFU TMEM200A (11744735_a_at) / Fold change /veh TMEM200A (11744735_a_at) / RFU CCDC152 (11751479_a_at) / Fold change /veh CCDC152 (11751479_a_at) / RFU FAM211A (11726209_a_at) / Fold change /veh FAM211A (11726209_a_at) / RFU RGS16 (11746705_a_at) / Fold change /veh RGS16 (11746705_a_at) / RFU VCAN (11755009_s_at) / Fold change /veh VCAN (11755009_s_at) / RFU RHOB (11743442_s_at) / Fold change /veh RHOB (11743442_s_at) / RFU RGS16 (11720943_a_at) / Fold change /veh RGS16 (11720943_a_at) / RFU RGS16 (11720944_at) / Fold change /veh RGS16 (11720944_at) / RFU, VPS4B / Fold change vs veh, VPS4B / RFU, CREB1 / Fold change vs veh, CREB1 / RFU, DNAJC13 / Fold change vs veh, DNAJC13 / RFU, GNAQ / Fold change vs veh, GNAQ / RFU, CDK5R1 / Fold change vs veh, CDK5R1 / RFU, ZRANB3 / Fold change vs veh, ZRANB3 / RFU, CUL4A / Fold change vs veh, CUL4A / RFU, CCNY / Fold change vs veh, CCNY / RFU, UFL1 / Fold change vs veh, UFL1 / RFU, COG3 / Fold change vs veh, COG3 / RFU, DIAPH2 / Fold change vs veh, DIAPH2 / RFU, SKA2 / Fold change vs veh, SKA2 / RFU, AFF3 / Fold change vs veh, AFF3 / RFU, LMF1 / Fold change vs veh, LMF1 / RFU, IPO11 / Fold change vs veh, IPO11 / RFU, DFFB / Fold change vs veh, DFFB / RFU, FOXP1 / Fold change vs veh, FOXP1 / RFU, CARD8 / Fold change vs veh, CARD8 / RFU, STRN3 / Fold change vs veh, STRN3 / RFU, ADK / Fold change vs veh, ADK / RFU, RASSF2 / Fold change vs veh, RASSF2 / RFU, WIPF1 / Fold change vs veh, WIPF1 / RFU, LARP1B / Fold change vs veh, LARP1B / RFU, RASA1 / Fold change vs veh, RASA1 / RFU, RB1 / Fold change vs veh, RB1 / RFU, PPFIA1 / Fold change vs veh, PPFIA1 / RFU, MAT2A / Fold change vs veh, MAT2A / RFU, CCT5 / Fold change vs veh, CCT5 / RFU, WDR92 / Fold change vs veh, WDR92 / RFU, CUX1 / Fold change vs veh, CUX1 / RFU, TTC7A / Fold change vs veh, TTC7A / RFU, TMEM135 / Fold change vs veh, TMEM135 / RFU, DEPTOR / Fold change vs veh, DEPTOR / RFU, CPM / Fold change vs veh, CPM / RFU, DNAJB6 / Fold change vs veh, DNAJB6 / RFU, CACNA2D3 / Fold change vs veh, CACNA2D3 / RFU, DTX4 / Fold change vs veh, DTX4 / RFU, TFCP2 / Fold change vs veh, TFCP2 / RFU, GMCL1 /// GMCL1P1 / Fold change vs veh, GMCL1 /// GMCL1P1 / RFU, AEBP2 / Fold change vs veh, AEBP2 / RFU, SNHG1 /// SNORD22 /// SNORD25 /// SNORD26 /// SNORD27 /// SNORD28 /// SNORD29 /// SNORD31 / Fold change vs veh, SNHG1 /// SNORD22 /// SNORD25 /// SNORD26 /// SNORD27 /// SNORD28 /// SNORD29 /// SNORD31 / Fold change (Aza/veh), C12orf56 (ProbeSet 11735607_a_at) / Fold change (ACY-1035/veh), C12orf56 (ProbeSet 11735607_a_at) / Fold change (Aza/veh), FGFR1OP (ProbeSet 11751329_s_at) / Fold change (ACY-1035/veh), FGFR1OP (ProbeSet 11751329_s_at) / Fold change (Aza/veh), VPS36 (ProbeSet 11739960_a_at) / Fold change (ACY-1035/veh), VPS36 (ProbeSet 11739960_a_at) / RFU SYPL1 (11715823_x_at) / Fold change /veh SYPL1 (11715823_x_at) / RFU IGFBP7 (11715501_s_at) / Fold change /veh IGFBP7 (11715501_s_at) / RFU REEP3 (11722064_at) / Fold change /veh REEP3 (11722064_at) / RFU IGLL1 (11728026_x_at) / Fold change /veh IGLL1 (11728026_x_at): dose or concentration left out as unconfirmed
Details: MV-4-11 cells, 48 hours

Nc1ccc(-c2cccs2)cc1NC(=O)c1ccc2c(c1)cc(C1CC1)n2CCN1CCOCC1 [ACY-1035]
Fold change /veh PIWIL2 (11732686_x_at): 0.84
